# Measured values as given in patent publication US20040077689A1, “Abc expression promoters” (priority 2001, published 2004).
# Structures can show the parent of a compound that is named as a salt.
# Experiments:
# Format in all cases: cell-based
# ABCA1 mRNA = experiment: Expression modulatory activity for ABCA1 mRNA in human monocyte-derived cells; conditions: THP-1 cells, test compound 1 μM, 24 hours; Not added = 100.0; Mean ± SEM (n = 3)
# Procedure: (§1) To a PMA (phorbol 12-myristate 13-acetate, 400 ng/mL)-FBS (fetal bovine serum, 10%)-containing RPMI medium was suspended human monocyte -derived THP-1 cells (ATCC) (7×10^5 cell/mL), and the obtained suspension was dispensed into a 24-well plate (0.5 mL/well) and cultured for 3 days. After removing the medium, a FBS (fetal bovine serum, 10%)—containing RPMI1640 medium into which a test compound (1 μM) had been added was added to the 24-well plate and the plate was cultured for 24 hours. Whole RNA was extracted from the cultured cells using RNeasy Mini Kit (QIAGEN), and then the expression amounts of LXRα mRNA, ABCA1 mRNA, ABCG1 mRNA and Human acidic ribosomal protein (huPO; 36B4) mRNA as an internal standard were measured by real-time quantitative RT-PCR according to TaqMan PCR method using a TaqMan EZ RT-PCR kit (Applied Biosystems). […]
# (§2) The expression amount of Human acidic ribosomal protein (huPO; 36B4) mRNA was measured using Pre-Developed TaqMan Assay Reagents Endogenous Control (Human Acidic ribosomal protein (huPO)) (Applied Biosystems), and VIC was used as a reporter dye and TAMRA was used as a quencher dye. […]
# ABCG1 mRNA [1] = experiment: Expression modulatory activity for ABCG1 mRNA in mouse macrophages; conditions: C57BL6/J mouse peritoneal macrophages, test compound 1 μM, 24 hours; Not added = 100.0; Mean ± SEM (n = 3)
# Procedure: (§3) A C57BL6/J mouse (male, 10 weeks old) was intraperitoneally administered with 1 mL of a 5% thioglycolic acid medium (Wako Pure Chemical Industries, Ltd.). After 4 days, intraperitoneal cells were collected with phosphate-buffered saline (PBS), and macrophages were separated in a 3% BSA-containing DMEM medium as cells adhesive to a plate. After incubation of the macrophages overnight in a DMEM medium containing 10% human lipoprotein-removed serum, the medium was replaced with a DMEM medium containing a test compound (1 μM) and 10% fetal bovine serum and cultured for 24 hours.
# (§4) After the medium was removed, whole RNA was extracted from the obtained macrophage using RNeasy Mini Kit (QIAGEN) and then the expression amounts of the LXRαmRNA, ABCG1mRNA and mouse acidic ribosomal protein (36B4) mRNA as an internal standard were measured by real-time quantitative RT-PCR according to TaqMan PCR method using a TaqMan EZ RT-PCR kit (Applied Biosystems). […]
# (§5) Real-time quantitative PCR was carried out according to the similar manner to Experimental Example 1.
# (§6) Based on the ratio of the expression amount of the LXRαmRNA and ABCG1mRNA relative to the internal standard (expression amount of mouse acidic ribosomal protein mRNA), the expression modulatory activities for the LXRα mRNA and ABCG1 mRNA of the test compound were evaluated.
# ACAT-1 mRNA = experiment: Expression modulatory activity for ACAT-1 mRNA in human monocyte-derived cells; conditions: THP-1 cells, test compound 1 μM, 2 days + 1 day; Not added = 100.0; Mean ± SEM (n = 3)
# Procedure: (§7) In a RPMI medium containing a test compound (1 μM), PMA (phorbol 12-myristate 13-acetate, 400 ng/mL)-FBS (fetal bovine serum, 10%) was suspended human monocyte-derived THP-1 cells (purchased from Dainippon Pharmaceutical Co., Ltd.) (7.2×10^5 cell/mL). The obtained suspension was dispensed into a 24 well plate (0.5 mL/well) and cultured for 2 days (3.6×10^5 cells). After the medium was removed, a RPMI medium containing the test compound (1 μM), PMA(400 ng/mL)-FBS(10%) was added to the plate and it was cultured further for 1 day.
# (§8) After the medium was removed, whole RNA was extracted from the obtained cells using RN easy Mini Kit (QIAGEN), and the expression amounts of ACAT-1 mRNA, CEH mRNA and human acidic ribosomal protein (huPO; 36B4) mRNA as an internal standard were measured by real-time quantitative RT-PCR according to TaqMan PCR method using a TaqMan EZ RT-PCR kit (Applied Biosystems).
# In the above mentioned method, for the measurement of the expression amount of the ACAT-1mRNA, oligo DNAs represented by
# 5′-[…]-3′ (SEQ ID NO: 19),
# 5′-[…]-3′ (SEQ ID NO: 20) and […]
# (§9) The expression amount of human acidic ribosomal protein (huPO; 36B4) mRNA was measured according to the method similar to Experimental Example 1. Real-time quantitative RT-PCR was carried out similarly to Experimental Example 1. […]
# LXRα mRNA [2] = experiment: Expression modulatory activity for LXRα mRNA in mouse macrophages; conditions: C57BL6/J mouse peritoneal macrophages, test compound 1 μM, 24 hours; Not added = 100.0; Mean ± SEM (n = 3)
# Procedure: as §3, §4, §5, §6
# ABCG1 mRNA [3] = experiment: Expression modulatory activity for ABCG1 mRNA in human monocyte-derived cells; conditions: THP-1 cells, test compound 1 μM, 24 hours; Not added = 100.0; Mean ± SEM (n = 3)
# Procedure: as §1, §2
# LXRα mRNA [4] = experiment: Expression modulatory activity for LXRα mRNA in human monocyte-derived cells; conditions: THP-1 cells, test compound 1 μM, 24 hours; Not added = 100.0; Mean ± SEM (n = 3)
# Procedure: as §1, §2
# [5] = tested on: human monocyte-derived THP-1 cells; experiment: Foaming-suppressant activity in human monocyte-derived cells (intracellular lipid content); conditions: for Intracellular lipid content FC (free cholesterol) / Intracellular lipid content TC (total cholesterol) / Intracellular lipid content CE (cholesteryl ester): test compound 1 μM, rabbit β-VLDL loading 2 days; for Intracellular lipid content FC (free cholesterol): Not added = 80.8 ± 1.2, Mean ± SEM (n = 3); for Intracellular lipid content TC (total cholesterol): Not added = 114.8 ± 1.8, Mean ± SEM (n = 3); for Intracellular lipid content CE (cholesteryl ester): calculated as TC minus FC, Not added = 34.0 ± 2.3, Mean ± SEM (n = 3)
# Procedure: In a RPMI1640 medium containing a test compound (1 μM), PMA (phorbol 12-myristate 13-acetate, 400 ng/ml) and 10% fetal bovine serum was suspended human monocyte-derived THP-1 cells (purchased from Dainippon Pharmaceutical Co., Ltd.). The obtained suspension was dispensed into a 12-well plate (7.2×10^5 cells) and was cultured for 3 days. The obtained cell was further cultured in a RPMI1640 medium containing the test compound and 0.2 mM oleic acid-0.2% bovine serum albumin complex and rabbit β-VLDL (200 μg cholesterol/mL) for 2 days, and then the total lipids in the cells were extracted with a mixed solution of n-hexane/isopropanol (3:2). The amounts of the total cholesterol (TC) and free cholesterol (FC) in the extract were measured with a enzyme method [using Cholesterol E-Test Wako (trade name, Wako Pure Chemical Industries, Ltd.)], and the amount of cholesteryl ester (CE) was calculated by the difference between the two cholesterol amounts. The intracellular lipid content was then evaluated by dividing the amounts of these lipids by the amount of cell protein (measured using BCA assay kit (Pierce)). In the Table, TC represents total cholesterol, FC represents free cholesterol and CE represents cholesteryl ester.
# CEH mRNA = experiment: Expression modulatory activity for CEH mRNA in human monocyte-derived cells; conditions: THP-1 cells, test compound 1 μM, 2 days + 1 day; Not added = 100.0; Mean ± SEM (n = 3)
# Procedure: as §7, §8
# Furthermore, for the measurement of the expression amount of the CEH mRNA, oligo DNAs represented by
# 5′-AGCCCTTGGCTGAGCAAA-3′ (SEQ ID NO: 22),
# 5′-GTCGCAGGCAGTGAACCAT-3′ (SEQ ID NO: 23) and
# 5′-[…]-3′ (SEQ ID NO: 24) […]
# as §9
Structure (SMILES),Expression amount of mRNA (Relative ratio % to internal standard) ABCA1 (ABCA1 mRNA) [%],Expression amount of mRNA (Relative ratio % to internal standard) ABCG1 (ABCG1 mRNA [1]) [%],Expression amount of mRNA (Relative ratio % to internal standard) ACAT-1 (ACAT-1 mRNA) [%],Expression amount of mRNA (Relative ratio % to internal standard) LXRα (LXRα mRNA [2]) [%],Expression amount of mRNA (Relative ratio % to internal standard) ABCG1 (ABCG1 mRNA [3]) [%],Expression amount of mRNA (Relative ratio % to internal standard) LXRα (LXRα mRNA [4]) [%],"foaming-suppressant activity ([5]; conclusion based on the decrease in the amount of cholesteryl ester, 1 μM)",Intracellular lipid content FC (free cholesterol) [5] [μg/mg cell protein],Intracellular lipid content TC (total cholesterol) [5] [μg/mg cell protein],Intracellular lipid content CE (cholesteryl ester) [5] [μg/mg cell protein],Expression amount of mRNA (Relative ratio % to internal standard) CEH (CEH mRNA) [%]
"Cc1oc(-c2ccccc2)nc1COc1ccc(CO/N=C(\CCC(=O)O)c2ccccc2)cc1 [Compound (7), E-4-[4-(5-methyl-2-phenyl-4-oxazolylmethoxy)benzyloxyimino]-4-phenylbutyric acid]",113.5 ± 5.5,159.1 ± 6.1,66.1 ± 1.5,173.0 ± 9.9,265.5 ± 22.0,160.1 ± 9.0,have foaming-suppressant activity,72.0 ± 1.3,95.8 ± 1.4,23.7 ± 1.9,159.4 ± 1.9
"CCc1ccc(CCOc2ccc(CC3SC(=O)NC3=O)cc2)nc1 (stereo not drawn) [Pioglitazone hydrochloride, reference compound]",108.2 ± 3.5,195.2 ± 23.1,65.8 ± 1.9,145.3 ± 17.9,252.0 ± 9.2,165.7 ± 4.6,,72.7 ± 0.4,100.3 ± 0.3,27.6 ± 0.5,148.6 ± 9.2
